{"source": "patent US6890969B2", "about": "“Polymer emulsion preservation using cationic compounds” (Air Products Polymers, L.P., priority 2000, dated 2005)", "key": {"[1]": {"test_system": "GABL", "assay": "GABL biochallenge test of preserved polymer emulsions (streak plate / RABIT), inoculations passed", "assay_type": "cell-based, Gluconoacetobacter liquefaciens", "conditions": "for Inoculations Passed: PVOH-stabilized VAE emulsion, Tg 0 °C, <1000 ppm vinyl acetate; for preservative efficacy against GABL (in words): dosages similar to 200 ppm, failing immediately after the initial GABL inoculation; for preservative quality against GABL compared with cationic compounds (in words): common industrial biocides, CIT/MIT limited to 50 ppm, DBNPA to 100 ppm; for efficacy against GABL (in words): even at doses of 450 and 500 ppm", "experimental": "GABL Inoculum Preparation\nA recently isolated culture of GABL was grown on potato dextrose agar slants by inoculating the agar surface. The potato dextrose agar slants were incubated for 48-72 hours at 25° C. After this incubation period, GABL cells were harvested using quarter strength Ringers solution to wash the GABL colonies off of the agar surface. The washings from each slant were combined into one sterile, Erlenmeyer flask. The number of slants and the amount of quarter strength Ringers solution used to wash off the GABL colonies was adjusted during the procedure to obtain a final microbial viable count in the range of 10^8-10^10 CFU/mL.\nRapid Automated Bacterial Impedance Technique (RABIT): supplied by Microbiology International, manufactured by Don Whitley Scientific, Ltd.\nRABIT utilizes the principal of impedance microbiology to detect and assess microbial activity in a given sample. Using the RABIT, microbial metabolism is monitored by measuring the amount of carbon dioxide produced by actively respiring microorganisms. The electrodes in the RABIT test cells are partially covered with alkaline agar containing potassium hydroxide. As inoculated test samples are monitored on the RABIT, carbon dioxide produced from microbial metabolism is absorbed by the alkaline agar resulting in a change in conductivity. Conductivity is monitored with time and the time to reach a pre-specified rate of reduction in conductivity is termed the time to detection (TTD). Therefore, the shorter the TTD, the higher the number of microorganisms present. Failure can be defined as three successive decreases in conductivity equal to or greater than a pre-specified value (−10 microSiemens is recommended by the manufacturer) at any time during the 72 hour RABIT monitoring period. Alternatively, failure can be defined as a pre-specified total change in conductivity.\nBiochallenge Test Procedure\nSamples (50 g each) of each test emulsion containing a test antimicrobial agent were inoculated with 1.0 mL of the GABL inoculum. After mixing well, the samples were then placed in a 30° C. incubator. After 1, 2, and 6 days of incubation each sample was streak plated onto potato dextrose agar to assess the level of surviving GABL microorganisms. The potato dextrose agar plates were incubated at 25° C. for 48-72 hours before assessing the growth. On the seventh day of incubation, each test emulsion sample was inoculated again with a freshly prepared GABL inoculum, mixed well, then placed back into the incubator. The samples were again streak plated onto potato dextrose agar after incubating for 1, 2, and 6 days since the second inoculation. On the fourteenth day after the test was initiated, the test emulsions were inoculated a third time with another freshly prepared GABL inoculum and then placed back into the incubator. The samples were again streak plated onto potato dextrose agar after 1, 2, 6, and 13 days of incubation since the third inoculation to assess surviving microorganisms. Test failure is defined as a microbial viable count >300 CFU/10 μL observed from the potato dextrose agar streak plate assessments.\nBiochallenge Test Procedure Via the RABIT\nA small amount of a microbial nutrient was added to each emulsion test sample (50 g) containing a test antimicrobial agent. The resulting samples were then inoculated with 1.0 mL of the GABL inoculum. After mixing well, an aliquot (5 g) of each test sample was placed into separate RABIT indirect conductivity tubes. The indirect conductivity tubes were then placed into the RABIT incubator modules set at 30° C. and the conductivity changes monitored for up to 72 hours. The remainder of each test sample was stored in a 30° C. incubator during the RABIT monitoring period. At the completion of the RABIT monitoring period, the aliquot samples were placed back into their respective sample containers. Each test sample was then re-inoculated with a freshly prepared GABL inoculum. […]"}, "[2]": {"test_system": "mixed bacterial pool", "assay_type": "cell-based", "conditions": "PVOH-stabilized VAE emulsion Tg 0, <1000 ppm vinyl acetate", "experimental": "The preservative efficacy of several cationic compounds in a poly(vinyl alcohol)-stabilized VAE copolymer emulsion (Tg=0) containing less than 1000 ppm vinyl acetate was assessed according to the following procedure:\nAeromonas hydrophilia, Alcaligenes faecalis, Corynebacterium ammoniagenes, Enterobacter aerogenes, Escherichia coli, Klebsiella pneumoniae, Pseudomonas aeruginosa, Proteus vulgaris, Providencia rettgeri, Pseudomonas stutzeri, Shewanella putrefaciens, Serratia liquefaciens, Acinetobacter baumannii, Burkholderia cepacia, Chryseobacterium meningosepticum, Sphingobacterium spiritivorum, Ralstonia pickettii, and GABL.\nMixed Bacterial Pool Inoculum Preparation\nEach bacterial culture was individually grown on nutrient agar slants, except GABL was grown on potato dextrose agar slants, by inoculating the agar surfaces. The nutrient agar slants were incubated for 24-48 hours at 30° C. and the potato dextrose agar slants were incubated for 48-72 hours at 25° C. After this incubation period, the cells were harvested using quarter strength Ringers solution to wash the bacterial colonies off the agar surface. The washings from all of the slants were combined into one sterile, Erlenmeyer flask. The number of slants and the amount of Ringers Solution used to wash off the bacterial colonies is adjusted during the procedure to obtain a final mixed microbial viable count in the range of 10^8-10^10 CFU/mL.\nBacterial Biochallenge Test Procedure\nThe RABIT procedures were followed as described in Example 1, except the mixed bacterial pool inoculum was used to inoculate the test samples instead of the GABL inoculum."}}, "note": "Like-named read-outs stand apart in the source and are kept apart here."}
{"compound": "CCCCCCCCCC[N+](C)(C)CCCCCCCCCC.[Cl-]", "note": "[BTC ® 1010, Didecyldimethylammonium chloride]", "values": [{"measurement": "Inoculations Passed", "setting": "[1]; biocide dosage 200 ppm active, listed as BTC 1010", "result": 3}]}
{"compound": "CCCCCCCCCCCCCCCC[n+]1ccccc1", "note": "[CPC, cetylpyridinium chloride, reference compound]", "values": [{"measurement": "Inoculations Passed", "setting": "[1]; biocide dosage 100 ppm active", "result": 0}, {"measurement": "Inoculations Passed", "setting": "[1]; biocide dosage 250 ppm active", "result": 2}, {"measurement": "Inoculations Passed", "setting": "[1]; biocide dosage 300 ppm active", "result": 5}, {"measurement": "Inoculations Passed", "setting": "[2]; active biocide dosage 300 ppm", "result": 5}, {"measurement": "Inoculations Passed", "setting": "[2]; active biocide dosage 400 ppm", "result": 7}]}
{"compound": "CCCCCCCCCCCCCCCC[N+](C)(C)C.[Br-]", "note": "[CTAB, cetyltrimethylammonium bromide]", "values": [{"measurement": "Inoculations Passed", "setting": "[1]; biocide dosage 300 ppm active", "result": 1}, {"measurement": "preservative efficacy against GABL (in words)", "setting": "[1]", "result": "ineffective"}]}
{"compound": "CC(=O)O.CC(=O)O.NC(=N\\CCCCCC/N=C(N)/N=C(\\N)Nc1ccc(Cl)cc1)/N=C(\\N)Nc1ccc(Cl)cc1", "note": "[Chlorhexidine diacetate, reference compound]", "values": [{"measurement": "Inoculations Passed", "setting": "[1]; biocide dosage 400 ppm active", "result": 0}]}
{"compound": "N=C(NCCCCCCNC(=N)NC(=N)Nc1ccc(Cl)cc1)NC(=N)Nc1ccc(Cl)cc1.O=C(O)[C@H](O)[C@@H](O)[C@H](O)[C@H](O)CO.O=C(O)[C@H](O)[C@@H](O)[C@H](O)[C@H](O)CO", "note": "[Chlorhexidine digluconate, reference compound]", "values": [{"measurement": "Inoculations Passed", "setting": "[1]; biocide dosage 250 ppm active", "result": 0}]}
{"compound": "N#CCCC(Br)(C#N)CBr", "note": "(stereo not shown) [DBDCB, 1,2-dibromo-2,4-dicyanobutane, reference compound]", "values": [{"measurement": "Inoculations Passed", "setting": "[1]; biocide dosage 450 ppm active", "result": 0}, {"measurement": "preservative quality against GABL compared with cationic compounds (in words)", "setting": "[1]", "result": "inferior preservatives"}, {"measurement": "efficacy against GABL (in words)", "setting": "[1]", "result": "ineffective"}]}
{"compound": "N#CC(Br)(Br)C(N)=O", "note": "[DBNPA, 2,2-dibromo-3-nitrilo-propionamide, reference compound]", "values": [{"measurement": "Inoculations Passed", "setting": "[1]; biocide dosage 100 ppm active", "result": 0}, {"measurement": "preservative quality against GABL compared with cationic compounds (in words)", "setting": "[1]", "result": "inferior preservatives"}, {"measurement": "efficacy against GABL (in words)", "setting": "[1]", "result": "ineffective"}]}
{"compound": "O=CCCCC=O", "note": "[Glutaraldehyde, reference compound]", "values": [{"measurement": "Inoculations Passed", "setting": "[1]; biocide dosage 500 ppm active", "result": 0}, {"measurement": "preservative quality against GABL compared with cationic compounds (in words)", "setting": "[1]", "result": "inferior preservatives"}, {"measurement": "efficacy against GABL (in words)", "setting": "[1]", "result": "ineffective"}]}
{"compound": "NCC(=O)O", "note": "[Glycine]", "values": [{"measurement": "Inoculations Passed", "setting": "[1]; biocide dosage 500 ppm active", "result": 0}]}
{"compound": "CCCCCCCCCC[N+](C)(C)CCCCCCCCCC.[Cl-]", "note": "[TPI ® 1716, Didecyldimethylammonium chloride]", "values": [{"measurement": "Inoculations Passed", "setting": "[1]; biocide dosage 100 ppm active", "result": 0}, {"measurement": "Inoculations Passed", "setting": "[1]; biocide dosage 200 ppm active, listed as TPI 1716", "result": 2}, {"measurement": "Inoculations Passed", "setting": "[1]; biocide dosage 300 ppm active", "result": "≧5"}]}
{"compound": "CC(C)[C@H](N)C(=O)O", "note": "[Valine]", "values": [{"measurement": "Inoculations Passed", "setting": "[1]; biocide dosage 1000 ppm active", "result": 0}]}
{"compound": "[H]/N=C(\\N/C(=N/[H])NCCCCCCNC(=N)NC(=N)Nc1ccc(Cl)cc1)Nc1ccc(Cl)cc1", "note": "[chlorhexidine, reference compound]", "values": [{"measurement": "preservative efficacy against GABL (in words)", "setting": "[1]", "result": "ineffective"}]}
{"compound": "Benzalkonium chloride [TPI ® 1717]", "values": [{"measurement": "Inoculations Passed", "setting": "[1]; biocide dosage 200 ppm active", "result": 0}, {"measurement": "Inoculations Passed", "setting": "[1]; biocide dosage 300 ppm active", "result": 0}]}
{"compound": "Tetrakis(hydroxymethyl) phosphonium sulfate [Tolcide ® PS]", "values": [{"measurement": "Inoculations Passed", "setting": "[1]; biocide dosage 500 ppm active", "result": 0}]}
